Assays:
[1] = test system: collagen-induced arthritis; assay: Collagen-induced arthritis; type: in vivo, Lewis rats; set-up: key to Clinical score Day 24, relative reduction / Pannus score, relative reduction / Total histology score, relative reduction: fractional reduction vs vehicle control, sham-baseline subtracted; conditions: for Clinical score Day 24, relative reduction / Pannus score, relative reduction / Paw volume Day 24, relative reduction / Total histology score, relative reduction / Relative reduction in serum cytokine levels: IL-1β / Relative reduction in serum cytokine levels: IL-6: CBD 1 mg/kg, HCQ 2.5 mg/kg, alone or combined; for Clinical score Day 24, relative reduction / Pannus score, relative reduction / Paw volume Day 24, relative reduction / Total histology score, relative reduction: observed
Procedure: Female Lewis rats were challenged with porcine type-II collagen with Freund's adjuvant on Day 1 (0.2 mg/0.2 mL/rat) by subcutaneous injection at the base of the tail to induce arthritis. A booster injection at 0.1 mg/0.1 mL/rat) was administered on Day 7. On Day 16, rats were allocated into groups of six based on hind paw volume, with animals allocated into groups to provide a similar distribution of hind paw volumes.
Vehicle and active agents (i.e., CBD and hydroxychloroquine) alone or in combination were administered intraperitoneally (IP) once a day starting from Day 17 to Day 30, i.e., for a total of 14 consecutive days.
Disease was assessed by measuring hind paw volume with plethysmometer and using a qualitative severity score system as outlined in Table 32 on Day 1, 7, 10, 14, 16, 18, 20, 22, 24, 26, 28 and 30.
Post-termination on Day 30, blood was collected from all rats and analysed for levels of the inflammatory cytokines IL-1β, IL-6 and TNF-α by ELISA. Both hind paws were harvested, weighed and formalin-fixed for histopathology. Tissue was assessed to evaluate cartilage and bone destruction by pannus formation and mononuclear cell infiltration in synovial tissues according to the scoring matrices set out in Tables 33 and 34. A total histology score, being the sum of the pannus formation and mononuclear cell infiltration score, was also calculated.
For synergy analysis, data were baseline subtracted using sham treated […] (i.e., no collagen injection), before normalising the values relative to vehicle control. Synergy was calculated using the statistical methods described elsewhere herein.

[2] = Solubility of formulations for in vivo analysis (visual observation); type: physicochemical
Description: Cannabidiol (CBD) and hydroxychloroquine (HCQ), were purchased by Pharmacology Discovery Services Taiwan, Ltd. The formulations are summarised in Table 3.

[3] = HCQ 25 mg/kg alone vs CBD 1 mg/kg + HCQ 2.5 mg/kg
[4] = HCQ 25 mg/kg alone vs CBD 1 mg/kg + HCQ 2.5 mg/kg, serum

| Structure (SMILES) | Clinical score Day 24, relative reduction [1] | Pannus score, relative reduction [1] | Paw volume Day 24, relative reduction [1] | Total histology score, relative reduction [1] | Relative reduction in serum cytokine levels: IL-1β ([1]; serum) | Relative reduction in serum cytokine levels: IL-6 ([1]; serum) | Clinical score Day 24, reduction in disease severity [1, 3] | Clinical score Day 30, reduction in disease severity [1, 3] | Mononuclear cell infiltration, reduction in disease severity [1, 3] | Pannus score, reduction in disease severity [1, 3] | Paw volume Day 24, reduction in disease severity [1, 3] | Paw volume Day 30, reduction in disease severity [1, 3] | Total histology score, reduction in disease severity [1, 3] | IL-1B, reduction [1, 4] | IL-6, reduction [1, 4] | Solubil. [2] |
| --- | --- | --- | --- | --- | --- | --- | --- | --- | --- | --- | --- | --- | --- | --- | --- | --- |
| C=C(C)[C@@H]1CCC(C)=C[C@H]1c1c(O)cc(CCCCC)cc1O [CBD, cannabidiol] | 0.21 | 0.07 | 0.04 | 0.11 | 0.31 | 0.50 | – | – | – | – | – | – | – | – | – | – |
| CCN(CCO)CCCC(C)Nc1ccnc2cc(Cl)ccc12 (stereo not shown) [HCQ] | 0.18 | 0.07 | 0.04 | 0.15 | 0.37 | 0.51 | 0.21 | 0.26 | 0.24 | 0.28 | 0.10 | 0.20 | 0.26 | 0.25 | 0.36 | S |
